The supplement of paper PMC9938120

How the values were obtained:
Assay in all cases: drug sensitivity score (DSS3, normalised partial AUC of % inhibition dose-response) (DSS (score)); higher = more sensitive (stronger inhibition of viability); extreme values may be limits of the assay
[1] = tested on: FMOC03 (patient-derived mucinous ovarian cancer cells); details: 72 h; library: FO5A; assay format: 2D, 384-well, CellTiter-Glo
Summary of the method: (§1)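 Cells were dispensed onto 384-well flat clear-bottom plates already holding compounds at five concentrations over a 10,000-fold range, using patient-derived ovarian cancer cells at passage under 10. Incubation lasted 72 h at 37 °C in 5% CO2, after which CellTiter-Glo viability data were processed in Breeze. Higher drug sensitivity scores, each a partial area under the percent-inhibition dose-response curve divided by the log of the upper asymptote, mean more sensitive cells.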

[2] = tested on: FMOC28 (patient-derived low-grade serous ovarian cancer cells); details: 72 h; library: FO5A; assay format: 2D, 384-well, CellTiter-Glo
Summary of the method: as §1

[3] = tested on: FMOC22 (patient-derived mucinous ovarian cancer cells); details: 72 h; library: FO5A; assay format: 2D, 384-well, CellTiter-Glo
Summary of the method: as §1

[4] = tested on: FMOC02_3 (patient-derived low-grade serous ovarian cancer cells); details: 72 h; library: FO5A; assay format: 2D, 384-well, CellTiter-Glo
Summary of the method: as §1

[5] = tested on: FMOC17 (patient-derived low-grade serous ovarian cancer cells); details: 72 h; library: FO5A; assay format: 2D, 384-well, CellTiter-Glo
Summary of the method: as §1

[6] = tested on: FMOC04 (patient-derived high-grade serous ovarian cancer cells); details: 72 h; library: FO5A; assay format: 2D, 384-well, CellTiter-Glo
Summary of the method: as §1

[7] = tested on: FMOC11 (patient-derived high-grade serous ovarian cancer cells); details: 72 h; library: FO5A; assay format: 2D, 384-well, CellTiter-Glo
Summary of the method: as §1

[8] = tested on: FMOC27 (patient-derived low-grade serous ovarian cancer cells); details: 72 h; library: FO5A; assay format: 2D, 384-well, CellTiter-Glo
Summary of the method: as §1

[9] = tested on: FMOC14 (patient-derived high-grade serous ovarian cancer cells); details: 72 h; library: FO5A; assay format: 2D, 384-well, CellTiter-Glo
Summary of the method: as §1

[10] = tested on: FMOC25_2 (patient-derived low-grade serous ovarian cancer cells); details: 72 h; library: FO5A; assay format: 2D, 384-well, CellTiter-Glo
Summary of the method: as §1

[11] = tested on: FMOC02_1 (patient-derived low-grade serous ovarian cancer cells); details: 72 h; library: FO5A; assay format: 2D, 384-well, CellTiter-Glo
Summary of the method: as §1

[12] = tested on: FMOC02_2 (patient-derived low-grade serous ovarian cancer cells); details: 72 h; library: FO5A; assay format: 2D, 384-well, CellTiter-Glo
Summary of the method: as §1

[13] = tested on: FMOC06 (patient-derived mucinous ovarian cancer cells); details: 72 h; library: FO5A; assay format: 2D, 384-well, CellTiter-Glo
Summary of the method: as §1

[14] = tested on: FMOC09 (patient-derived high-grade serous ovarian cancer cells); details: 72 h; library: FO5A; assay format: 2D, 384-well, CellTiter-Glo
Summary of the method: as §1

[15] = tested on: FMOC24 (patient-derived high-grade serous ovarian cancer cells); details: 72 h; library: FO5A; assay format: 2D, 384-well, CellTiter-Glo
Summary of the method: as §1

[16] = tested on: FMOC25_1 (patient-derived low-grade serous ovarian cancer cells); details: 72 h; library: FO4B; assay format: 2D, 384-well, CellTiter-Glo
Summary of the method: as §1

Compound | drug sensitivity score [1] | drug sensitivity score [2] | drug sensitivity score [3] | drug sensitivity score [4] | drug sensitivity score [5] | drug sensitivity score [6] | drug sensitivity score [7] | drug sensitivity score [8] | drug sensitivity score [9] | drug sensitivity score [10] | drug sensitivity score [11] | drug sensitivity score [12] | drug sensitivity score [13] | drug sensitivity score [14] | drug sensitivity score [15] | drug sensitivity score [16]
COC(=O)N[C@@H](C)CNc1nccc(-c2cn(C(C)C)nc2-c2cc(Cl)cc(NS(C)(=O)=O)c2F)n1 [Encorafenib] | 0 | 0 | 0 | 0.9 | 0 | 0 | 0 | 0 | 0 | 3.3 | 4.2 | 0 | 0 | 0 | 0 | 0.2
Nc1cc(F)ccc1NC(=O)/C=C/c1cnn(C/C=C/c2ccccc2)c1 [RGFP966] | 2.9 | 4.6 | 1.4 | 3.5 | 0.9 | 0.6 | 3.2 | 0.6 | 1.9 | 2.5 | 3.1 | 2.9 | 2 | 0 | 2.9 | 0
C[C@@H]1C=C2C(=O)O[C@@H]3CC[C@H](C1)[C@]23O [Galiellalactone] | 3.9 | 6.7 | 4.2 | 2.3 | 5.8 | 5.9 | 4 | 3.8 | 5.5 | 4.6 | 5.9 | 5.9 | 2.5 | 6.7 | 1.65 | 0
O=C(O)CCCCC(CCSCc1ccccc1)SCc1ccccc1 (configuration not stated) [CPI-613] | 0 | 2.8 | 0 | 0 | 2.5 | 0 | 0 | 0 | 0 | 0 | 0 | 0 | 0 | 0 | 0 | 0
C[C@@H](Nc1cc(F)cc(F)c1)c1cc(C(=O)N(C)C)cc2c(=O)cc(N3CCOCC3)oc12 [AZD-8186] | 1.6 | 1.6 | 0 | 3.3 | 4.9 | 0.75 | 1.8 | 5.3 | 0 | 2.1 | 1.5 | 2.6 | 3 | 2.4 | 0 | 1.5
Clc1ccccc1C(c1ccccc1)(c1ccccc1)n1cccn1 [TRAM-34] | 0 | 1.5 | 0 | 0 | 0 | 0 | 0 | 0 | 0 | 0 | 0 | 0 | 0 | 0 | 0 | 0
CN1CCc2c(c3ccccc3n2Cc2ccc(C(=O)NO)cc2)C1 [Tubastatin A] | 0.5 | 2.8 | 0.8 | 3.4 | 0 | 1.4 | 1.7 | 0 | 1.3 | 1.3 | 2.9 | 1.4 | 0 | 0.5 | 0.85 | 0
CCCCNc1ncc(C(=O)NCc2ccc(-n3ccnc3)cc2)c(NC2CCC(O)CC2)n1 (configuration not stated) [UNC2881] | 0.2 | 1.5 | 0.4 | 2.5 | 1.3 | 0 | 0 | 0 | 0 | 1.8 | 1.4 | 2.2 | 0 | 0 | 0.4 | 0
COc1cc(OC2CCN(C)CC2)ccc1Nc1ncc2c(n1)n(C1CCCC1)c(=O)n2C [AZ 3146] | 0.7 | 2.3 | 0.8 | 9 | 4.7 | 1.3 | 1.3 | 4.4 | 0.9 | 6 | 5.2 | 5.2 | 2.9 | 1.1 | 6.25 | 3.7
CS(=O)(=O)c1ccc(-c2cnc(N)c(C(=O)Nc3ccccc3)n2)cc1 [VE-821] | 0 | 0 | 0 | 0.2 | 0 | 0 | 0 | 1.3 | 1.9 | 2.2 | 3.3 | 0.8 | 0 | 0 | 3.65 | 0.6
c1cn2cc(-c3ccc4cn[nH]c4c3)nc(Nc3ccc(N4CCOCC4)cc3)c2n1 [Entospletinib] | 0 | 0 | 0 | 0 | 1.8 | 0 | 0.7 | 0 | 0 | 0 | 4.3 | 3.2 | 0 | 0 | 0 | 0.1
NCCNc1ccc(NCCN)c2c1C(=O)c1ccncc1C2=O [Pixantrone] | 0 | 1.6 | 0 | 1.5 | 0.9 | 0.2 | 1.7 | 0 | 0 | 1.8 | 0 | 0 | 0 | 0 | 0 | 0.7
